Common to all, as to experiment: relative viability (nuclei count vs DMSO), 5 days (fraction); higher = more cells survive
Compound in the test “Afatinib + Trametinib”: CN(C)C/C=C/C(=O)Nc1cc2c(Nc3ccc(F)c(Cl)c3)ncnc2cc1O[C@H]1CCOC1 [Afatinib] + CC(=O)Nc1cccc(-n2c(=O)n(C3CC3)c(=O)c3c(Nc4ccc(I)cc4F)n(C)c(=O)c(C)c32)c1 [Trametinib] (partner 0.02 µM)
A digest of the protocol: (§1)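 Relative viability divides the nuclei count in treated wells by that in vehicle wells. Lung cancer cell lines were seeded in 1536-well plates, dosed by pin tool the next day, and fixed and stained after 5 days in one step with final 0.05% Triton X-100, 1% formaldehyde and 1 ug/ml Hoechst. Dosing was a single drug or a fixed anchor-drug dose plus five library-drug doses (not always all listed) in √10 steps, and values are medians of duplicate plates imaged at 4×.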

Compound in the test “Afatinib + Navitoclax”: CN(C)C/C=C/C(=O)Nc1cc2c(Nc3ccc(F)c(Cl)c3)ncnc2cc1O[C@H]1CCOC1 [Afatinib] + CC1(C)CCC(c2ccc(Cl)cc2)=C(CN2CCN(c3ccc(C(=O)NS(=O)(=O)c4ccc(N[C@H](CCN5CCOCC5)CSc5ccccc5)c(S(=O)(=O)C(F)(F)F)c4)cc3)CC2)C1 [Navitoclax] (partner 0.5 µM)
A digest of the protocol: as §1

Compound in the test “Afatinib + Phenformin”: CN(C)C/C=C/C(=O)Nc1cc2c(Nc3ccc(F)c(Cl)c3)ncnc2cc1O[C@H]1CCOC1 [Afatinib] + N=C(N)NC(=N)NCCc1ccccc1 [Phenformin] (partner 250 µM)
The method in brief: as §1

Compound in the test “Afatinib + Pemetrexed”: CN(C)C/C=C/C(=O)Nc1cc2c(Nc3ccc(F)c(Cl)c3)ncnc2cc1O[C@H]1CCOC1 [Afatinib] + Nc1nc2[nH]cc(CCc3ccc(C(=O)N[C@@H](CCC(=O)O)C(=O)O)cc3)c2c(=O)[nH]1 [Pemetrexed] (partner 0.2 µM)
A digest of the protocol: as §1

Data on 4 cell lines can be found in the supplement of paper PMC10307832.

H3255: the relative viability with Afatinib + Trametinib (first compound 0.005 µM) worked out at 0.297; with Afatinib + Trametinib (first compound 0.01581 µM) it was 0.208; in the test with Afatinib + Trametinib (first compound 0.05 µM) it was 0.288; with Afatinib + Trametinib (first compound 0.1581 µM) it was 0.195; with Afatinib + Trametinib (first compound 0.5 µM) it was 0.237; in the test with Afatinib + Navitoclax (first compound 0.005 µM) it was 0.101. The relative viability in the test with Afatinib + Navitoclax (first compound 0.01581 µM) stood at 0.0707; in the test with Afatinib + Navitoclax (first compound 0.05 µM), 0.086; with Afatinib + Navitoclax (first compound 0.1581 µM), 0.0584; with Afatinib + Navitoclax (first compound 0.5 µM), 0.076; with Afatinib + Phenformin (first compound 0.005 µM), 0.228; in the test with Afatinib + Phenformin (first compound 0.01581 µM) it was 0.23. Further, the relative viability amounted to 0.203 with Afatinib + Phenformin (first compound 0.05 µM); 0.202 in the test with Afatinib + Phenformin (first compound 0.1581 µM); 0.228 in the test with Afatinib + Phenformin (first compound 0.5 µM); 0.365 with Afatinib + Pemetrexed (first compound 0.005 µM); 0.313 in the test with Afatinib + Pemetrexed (first compound 0.01581 µM); 0.306 with Afatinib + Pemetrexed (first compound 0.05 µM). Besides, the relative viability in the test with Afatinib + Pemetrexed (first compound 0.1581 µM) came to 0.307; in the test with Afatinib + Pemetrexed (first compound 0.5 µM), 0.273.
For the cell line LXF-289, the relative viability came to 0.702 in the test with Afatinib + Trametinib (first compound 0.005 µM); 0.716 in the test with Afatinib + Trametinib (first compound 0.01581 µM); 0.616 in the test with Afatinib + Trametinib (first compound 0.05 µM); 0.613 with Afatinib + Trametinib (first compound 0.1581 µM); 0.647 with Afatinib + Trametinib (first compound 0.5 µM); 0.975 with Afatinib + Navitoclax (first compound 0.005 µM). Moreover, the relative viability with Afatinib + Navitoclax (first compound 0.01581 µM) stood at 0.885; with Afatinib + Navitoclax (first compound 0.05 µM), 0.91; with Afatinib + Navitoclax (first compound 0.1581 µM) it was 0.927; with Afatinib + Navitoclax (first compound 0.5 µM), 0.963; with Afatinib + Phenformin (first compound 0.005 µM), 0.492; with Afatinib + Phenformin (first compound 0.01581 µM), 0.521. In addition, the relative viability with Afatinib + Phenformin (first compound 0.05 µM) amounted to 0.534; in the test with Afatinib + Phenformin (first compound 0.1581 µM), 0.468; with Afatinib + Phenformin (first compound 0.5 µM), 0.471; in the test with Afatinib + Pemetrexed (first compound 0.005 µM), 0.909; in the test with Afatinib + Pemetrexed (first compound 0.01581 µM), 0.88; with Afatinib + Pemetrexed (first compound 0.05 µM), 0.843. Further, the relative viability with Afatinib + Pemetrexed (first compound 0.1581 µM) was 0.879; with Afatinib + Pemetrexed (first compound 0.5 µM) it was 0.824.
For the cell line UMC-11, the relative viability is 0.73 with Afatinib + Trametinib (first compound 0.005 µM); 0.732 with Afatinib + Trametinib (first compound 0.01581 µM); 0.667 with Afatinib + Trametinib (first compound 0.05 µM); 0.7 in the test with Afatinib + Trametinib (first compound 0.1581 µM); 0.908 with Afatinib + Trametinib (first compound 0.5 µM); 0.361 with Afatinib + Navitoclax (first compound 0.005 µM). Moreover, the relative viability with Afatinib + Navitoclax (first compound 0.01581 µM) worked out at 0.305; with Afatinib + Navitoclax (first compound 0.05 µM), 0.294; in the test with Afatinib + Navitoclax (first compound 0.1581 µM), 0.296; in the test with Afatinib + Navitoclax (first compound 0.5 µM) it was 0.293; in the test with Afatinib + Phenformin (first compound 0.005 µM), 0.358; with Afatinib + Phenformin (first compound 0.01581 µM), 0.33. For the same cell line, the relative viability came out at 0.324 with Afatinib + Phenformin (first compound 0.05 µM); 0.314 in the test with Afatinib + Phenformin (first compound 0.1581 µM); 0.303 with Afatinib + Phenformin (first compound 0.5 µM); 0.892 with Afatinib + Pemetrexed (first compound 0.005 µM); 0.814 with Afatinib + Pemetrexed (first compound 0.01581 µM); 0.846 in the test with Afatinib + Pemetrexed (first compound 0.05 µM). In addition, the relative viability with Afatinib + Pemetrexed (first compound 0.1581 µM) came to 0.738; with Afatinib + Pemetrexed (first compound 0.5 µM), 0.722.
Regarding LC-2-ad, the relative viability in the test with Afatinib + Trametinib (first compound 0.005 µM) was determined as 0.954; in the test with Afatinib + Trametinib (first compound 0.01581 µM), 0.914; with Afatinib + Trametinib (first compound 0.05 µM), 0.92; with Afatinib + Trametinib (first compound 0.1581 µM) it was 0.832; with Afatinib + Trametinib (first compound 0.5 µM) it was 0.87; in the test with Afatinib + Navitoclax (first compound 0.005 µM), 0.483. Besides, the relative viability with Afatinib + Navitoclax (first compound 0.01581 µM) was found to be 0.458; in the test with Afatinib + Navitoclax (first compound 0.05 µM), 0.419; with Afatinib + Navitoclax (first compound 0.1581 µM), 0.322; with Afatinib + Navitoclax (first compound 0.5 µM), 0.32; in the test with Afatinib + Phenformin (first compound 0.005 µM), 0.66; with Afatinib + Phenformin (first compound 0.01581 µM) it was 0.514. In addition, the relative viability in the test with Afatinib + Phenformin (first compound 0.05 µM) came out at 0.585; with Afatinib + Phenformin (first compound 0.1581 µM), 0.541; with Afatinib + Phenformin (first compound 0.5 µM), 0.52; in the test with Afatinib + Pemetrexed (first compound 0.005 µM) it was 0.275; with Afatinib + Pemetrexed (first compound 0.01581 µM) it was 0.273; with Afatinib + Pemetrexed (first compound 0.05 µM), 0.259. Besides, the relative viability with Afatinib + Pemetrexed (first compound 0.1581 µM) came to 0.28; with Afatinib + Pemetrexed (first compound 0.5 µM), 0.274.
